This is an account of results in patent publication US10947242B2, “[1,2,4]triazolo[1,5and#8208;A]pyrimidine compounds as PDE2 inhibitors” (Janssen Pharmaceutica NV, priority 2016, dated 2021).

What all share (assay type): biochemical
Assay [1] concerns the target T1, Human recombinant PDE10A (hPDE10A) (Homo sapiens, UniProt Q9Y233).
T1 construct: His tag (inferred from metal chelate purification); made in house; host or cells: Sf9 insect cells (baculovirus)
The assay can be described thus: In vitro assay PDE10A, human clone (SPA, 3H-cAMP hydrolysis). In short, it runs like this:
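Hydrolysis of 3H-cAMP (60 nM cAMP, 0.008 μCi tracer) proceeded for 60 min at room temperature, with the product detected by SPA bead scintillation counting. The enzyme was hPDE10A from baculovirus-infected Sf9 cells in Tris pH 7.8 buffer with MgCl2 and EGTA, and compounds were at 1% DMSO final. Blanks lacked enzyme.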

The target in assay [2] is T2, Human recombinant PDE3A (hPDE3A) (Homo sapiens, UniProt Q14432).
T2 construct: purchased Scottish Biomedical; host or cells: Sf9 insect cells
T2 sequence (Q14432 whole entry): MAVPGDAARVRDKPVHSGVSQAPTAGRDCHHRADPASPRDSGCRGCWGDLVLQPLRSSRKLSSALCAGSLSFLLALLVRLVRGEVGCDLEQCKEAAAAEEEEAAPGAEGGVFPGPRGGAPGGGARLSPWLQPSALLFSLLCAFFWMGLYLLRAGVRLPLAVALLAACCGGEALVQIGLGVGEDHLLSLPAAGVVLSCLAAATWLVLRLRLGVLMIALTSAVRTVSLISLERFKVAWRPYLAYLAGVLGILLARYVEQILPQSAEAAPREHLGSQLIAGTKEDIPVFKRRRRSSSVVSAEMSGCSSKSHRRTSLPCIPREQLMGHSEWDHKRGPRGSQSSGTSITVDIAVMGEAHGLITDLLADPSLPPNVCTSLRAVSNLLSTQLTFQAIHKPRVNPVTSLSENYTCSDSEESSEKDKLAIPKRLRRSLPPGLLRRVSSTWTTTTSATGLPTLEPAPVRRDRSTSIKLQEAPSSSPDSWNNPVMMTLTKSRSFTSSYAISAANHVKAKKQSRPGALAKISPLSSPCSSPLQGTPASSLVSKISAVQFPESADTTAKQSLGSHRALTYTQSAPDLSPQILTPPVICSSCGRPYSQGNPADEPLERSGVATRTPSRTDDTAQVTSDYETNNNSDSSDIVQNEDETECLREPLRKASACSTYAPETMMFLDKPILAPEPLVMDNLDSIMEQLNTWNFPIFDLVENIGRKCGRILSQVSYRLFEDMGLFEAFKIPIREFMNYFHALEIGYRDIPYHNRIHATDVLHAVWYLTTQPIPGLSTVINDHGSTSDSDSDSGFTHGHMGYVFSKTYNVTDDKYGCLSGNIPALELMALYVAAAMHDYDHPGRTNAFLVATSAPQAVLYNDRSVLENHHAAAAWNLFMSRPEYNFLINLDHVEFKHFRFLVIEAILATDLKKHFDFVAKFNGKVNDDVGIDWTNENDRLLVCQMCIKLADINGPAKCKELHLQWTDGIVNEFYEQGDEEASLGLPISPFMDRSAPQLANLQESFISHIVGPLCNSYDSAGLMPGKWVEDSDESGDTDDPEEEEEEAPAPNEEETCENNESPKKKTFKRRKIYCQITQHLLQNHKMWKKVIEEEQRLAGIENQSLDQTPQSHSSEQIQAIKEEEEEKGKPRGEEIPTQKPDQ
The assay can be described thus: In vitro assay PDE3A (SPA, 3H-cAMP hydrolysis).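 On all read-outs here: the method names PDE3A and the table heading PDE3B.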 To be noted: for IC50: hPDE3B pIC50, read-out: pIC50 (converted); for Emax: read-out: hPDE3B Emax, read-out: Emax. A digest of the protocol: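 Radiometric SPA measuring [3H]-cAMP hydrolysis (0.4 μM cAMP, 2.4 μCi/ml) over 60 min at room temperature, in Tris pH 7.8 buffer with MgCl2 and EGTA, 1% DMSO. Enzyme: recombinant human brain PDE3A expressed in Sf9 cells, used as partially purified lysate. Counts compared with enzyme-free blanks and vehicle controls.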

In assay [3] the target is T3, Human recombinant PDE2A (hPDE2A) (Homo sapiens, UniProt O00408).
T3 construct: His tag (inferred from metal chelate purification); made in house; host or cells: Sf9 insect cells (baculovirus)
T3 sequence (O00408 whole entry): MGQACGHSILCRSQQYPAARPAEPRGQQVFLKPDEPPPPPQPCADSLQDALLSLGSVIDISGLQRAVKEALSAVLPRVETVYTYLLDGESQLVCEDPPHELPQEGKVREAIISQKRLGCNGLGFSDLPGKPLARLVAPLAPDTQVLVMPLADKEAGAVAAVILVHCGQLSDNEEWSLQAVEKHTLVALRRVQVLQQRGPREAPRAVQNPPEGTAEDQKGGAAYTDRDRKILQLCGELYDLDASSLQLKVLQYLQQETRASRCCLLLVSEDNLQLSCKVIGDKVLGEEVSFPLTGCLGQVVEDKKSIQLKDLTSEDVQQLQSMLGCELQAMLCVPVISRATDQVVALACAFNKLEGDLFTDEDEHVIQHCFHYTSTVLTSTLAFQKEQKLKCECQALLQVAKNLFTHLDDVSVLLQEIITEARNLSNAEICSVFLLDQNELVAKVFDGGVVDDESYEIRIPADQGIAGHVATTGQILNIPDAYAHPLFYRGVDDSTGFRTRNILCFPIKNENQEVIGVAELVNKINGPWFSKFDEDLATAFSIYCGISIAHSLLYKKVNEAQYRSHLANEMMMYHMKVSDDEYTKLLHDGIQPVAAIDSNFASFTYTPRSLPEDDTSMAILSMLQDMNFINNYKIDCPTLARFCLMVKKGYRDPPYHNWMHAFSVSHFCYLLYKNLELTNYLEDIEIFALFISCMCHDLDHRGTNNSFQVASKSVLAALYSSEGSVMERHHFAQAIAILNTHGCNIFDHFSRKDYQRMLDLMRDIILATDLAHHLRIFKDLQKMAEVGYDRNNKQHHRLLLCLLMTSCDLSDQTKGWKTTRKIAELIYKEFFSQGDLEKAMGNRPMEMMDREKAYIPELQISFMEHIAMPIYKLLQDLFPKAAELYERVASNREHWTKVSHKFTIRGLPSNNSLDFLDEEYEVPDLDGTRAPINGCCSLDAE
The assay can be described thus: In vitro assay PDE2A (SPA, 3H-cGMP hydrolysis). The following applies: for Emax: read-out: hPDE2A Emax.

The mark [4] stands for this setting: human clone (h), default, read-out: hPDE10A2 Emax.
Where [5] appears, read: human clone (h), default, read-out: hPDE10A2 pIC50 (converted).
Where [6] appears, read: human recombinant PDE2A, 10 μM cGMP substrate, read-out: hPDE2A pIC50 (converted).
The mark [7] stands for this setting: read-out: hPDE2A pIC50 (converted).
The mark [8] stands for this setting: human clone by default (no (r) mark), read-out: hPDE10A2 or rPDE10A2 Emax.
Setting [9] is: human clone by default (no (r) mark), read-out: hPDE10A2 or rPDE10A2 pIC50 (converted).

Structures are written as SMILES. Read-outs that look alike come from different tables or passages of the source. A value given as a limit tells only on which side of the number the result lay.

T1 sequence (Q9Y233 267-1055): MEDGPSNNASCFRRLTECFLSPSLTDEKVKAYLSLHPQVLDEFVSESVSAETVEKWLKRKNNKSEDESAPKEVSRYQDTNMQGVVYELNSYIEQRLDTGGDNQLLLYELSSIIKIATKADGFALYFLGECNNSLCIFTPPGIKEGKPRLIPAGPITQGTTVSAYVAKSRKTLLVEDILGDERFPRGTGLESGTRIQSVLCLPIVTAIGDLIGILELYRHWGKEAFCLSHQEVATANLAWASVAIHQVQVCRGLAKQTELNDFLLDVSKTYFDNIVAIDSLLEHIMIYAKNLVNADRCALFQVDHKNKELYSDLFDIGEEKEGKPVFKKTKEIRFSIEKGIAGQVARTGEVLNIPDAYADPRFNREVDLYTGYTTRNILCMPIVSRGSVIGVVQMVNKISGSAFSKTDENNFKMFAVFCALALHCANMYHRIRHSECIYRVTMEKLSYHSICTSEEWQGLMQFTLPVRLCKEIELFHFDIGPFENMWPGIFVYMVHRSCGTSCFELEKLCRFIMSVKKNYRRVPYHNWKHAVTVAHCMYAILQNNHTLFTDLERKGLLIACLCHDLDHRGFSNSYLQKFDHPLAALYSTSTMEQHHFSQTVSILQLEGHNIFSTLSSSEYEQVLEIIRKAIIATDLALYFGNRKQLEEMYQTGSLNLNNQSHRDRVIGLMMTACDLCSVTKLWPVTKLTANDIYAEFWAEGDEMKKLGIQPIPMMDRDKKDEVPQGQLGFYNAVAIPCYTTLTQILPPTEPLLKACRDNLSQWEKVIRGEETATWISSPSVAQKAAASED

Regarding `C[C@@H]1CCN(C(=O)c2ccn(C)c2)C[C@H]1c1cc(C(F)F)nc2ncnn12` [Compound 67], the Emax in assay [1] (setting [4]) was 94%; in assay [2], 49%; in assay [3] (human recombinant PDE2A), 99%; in assay [3] it was 99%. Also, the IC50 in assay [1] (setting [5]) is 288 nM; in assay [2] it was > 10 µM; in assay [3] (setting [6]), 2.57 nM; in assay [3] (setting [7]), 2.57 nM.
Turning to `Cc1cc([C@@H]2CN(C(=O)c3ccc4occ(C)c4c3)CC[C@H]2C)n2ncnc2n1` [Compound 5], the Emax in assay [1] (setting [4]) was found to be 100%; in assay [2] it was 97%; in assay [3], 100%. Further, the IC50 in assay [1] (setting [5]) was 8.91 nM; in assay [2] it was 0.589 µM; in assay [3] (hPDE2A pIC50), 0.955 nM; in assay [3] (hPDE2A pIC50, human recombinant PDE2A, 10 μM cGMP substrate), 0.955 nM.
In the case of `CCCC[C@@H]1CCN(C(=O)c2cc(C)nc(C)c2)C[C@H]1c1cc(C(F)F)nc2ncnn12` (mixture of isomers) [Compound 44], the maximum response (Emax) in assay [1] (setting [4]) was found to be 79%; in assay [2] it was 39%; in assay [3] (human recombinant PDE2A), 100%; in assay [3], 100%. The IC50 in assay [1] (setting [5]) was 2570 nM; in assay [2], > 10 µM; in assay [3] (setting [6]), 9.55 nM; in assay [3] (setting [7]), 9.55 nM.
As to `C[C@@H]1CCN(C(=O)c2ccno2)C[C@H]1c1cc(C(F)F)nc2ncnn12` [Compound 243], the Emax in assay [1] (setting [4]) came to 70%; in assay [1] (setting [8]), 70%; in assay [2] it was 13%; in assay [3] (human recombinant PDE2A), 99%; in assay [3] it was 99%. The IC50 in assay [1] (setting [5]) was 3630 nM; in assay [1] (setting [9]), 3630 nM; in assay [2] it was > 10 µM; in assay [3] (setting [6]) it was 132 nM; in assay [3] (setting [7]) it was 132 nM.
With `COc1ccc2c(c1)cc(C(=O)N1CC[C@@H](C)[C@H](c3cc(C(F)F)nc4ncnn34)C1)n2C` [Compound 172], the Emax amounted to 100% in assay [1] (setting [4]), 98% in assay [2], 101% in assay [3] (human recombinant PDE2A) and 101% in assay [3]. For the same molecule, the IC50 in assay [1] (setting [5]) was 32.4 nM; in assay [2] it was 0.269 µM; in assay [3] (setting [6]) it was 4.57 nM; in assay [3] (setting [7]), 4.57 nM.
With `CC(C)(C)c1ccc(C(=O)N2[C@H]3CC[C@H](c4cc(C(F)F)nc5ncnn45)[C@@H]2CC3)o1` [Compound 348], the Emax in assay [1] (setting [8]) is 92%; in assay [2], 70%; in assay [3], 99%. The values for the IC50 in assay [1] (setting [9]), in assay [2] and in assay [3] (setting [7]) were 1290 nM, 4.47 µM and 33.9 nM, respectively.
In the case of `O=C(c1cccc2ncccc12)N1[C@H]2CC[C@H](c3cc(C(F)F)nc4ncnn34)[C@@H]1CC2` [Compound 315], the maximal response (Emax) was 47% in assay [1] (setting [8]), 20% in assay [2] and 98% in assay [3]. Besides, the IC50 in assay [1] (setting [9]) is 9770 nM; in assay [2] it was > 10 µM; in assay [3] (setting [7]) it was 112 nM.
Regarding `C[C@@H]1CCN(C(=O)c2ccncn2)C[C@H]1c1cc(C(F)F)nc2ncnn12` [Compound 256], the Emax in assay [1] (setting [4]) worked out at 48%; in assay [1] (setting [8]) it was 48%; in assay [2], 12%; in assay [3] it was 97%. Also, the IC50 was > 10 µM in assay [2] and 324 nM in assay [3] (setting [7]).
`C[C@@H]1CCN(C(=O)c2cnc(Br)s2)C[C@H]1c1cc(C(F)F)nc2ncnn12` [Compound 182]: the maximal effect (Emax) in assay [1] (setting [4]) came to 95%; in assay [2], 44%; in assay [3] (human recombinant PDE2A), 100%; in assay [3], 100%. Further, the IC50 is 417 nM in assay [1] (setting [5]), > 10 µM in assay [2], 25.1 nM in assay [3] (setting [6]) and 25.1 nM in assay [3] (setting [7]).
For the molecule `Cc1cc(C(=O)N2CC[C@H](C)[C@@H](c3cc(C)nc4ncnn34)C2)cc(C)n1` [Compound 1b], the “hPDE10A2 Emax” value in assay [1] (human clone (h), default) is reported as 50. Further, the “hPDE10A2 pIC50” value in assay [1] (human clone (h), default) was found to be 5.01. For the same molecule, in assay [2], the “hPDE3B Emax” value is 13. Besides, the “hPDE2A Emax” value in assay [3] and in assay [3] (human recombinant PDE2A) was 88 in each case. In addition, the “hPDE2A pIC50” value in assay [3] is 5.96; in assay [3] (human recombinant PDE2A, 10 μM cGMP substrate), 5.96.
As for `C[C@@H]1CCN(C(=O)c2ccc(N)nc2)C[C@H]1c1cc(C(F)F)nc2ncnn12` [Compound 181], the Emax in assay [1] (setting [4]) is 94%; in assay [2] it was 52%; in assay [3] (human recombinant PDE2A), 98%; in assay [3] it was 98%. Moreover, the IC50 in assay [1] (setting [5]) was 309 nM; in assay [2] it was > 10 µM; in assay [3] (setting [6]) it was 4.57 nM; in assay [3] (setting [7]), 4.57 nM.
Regarding `C[C@@H]1CCN(C(=O)c2ccnc(Cl)c2F)C[C@H]1c1cc(C(F)F)nc2ncnn12` [Compound 55], the Emax in assay [1] (setting [4]) turned out to be 83%; in assay [2] it was 41%; in assay [3] (human recombinant PDE2A) it was 101%; in assay [3], 101%. Further, the IC50 in assay [1] (setting [5]) is 1780 nM; in assay [2], > 10 µM; in assay [3] (setting [6]), 12.6 nM; in assay [3] (setting [7]) it was 12.6 nM.
Take `O=C(c1ccc(F)c(C(F)(F)F)c1)N1[C@H]2CC[C@H](c3cc(C(F)F)nc4ncnn34)[C@@H]1CC2` [Compound 357]: the maximal response (Emax) in assay [1] (setting [8]) turned out to be 73%; in assay [2] it was 34%; in assay [3], 98%. In addition, the IC50 in assay [1] (setting [9]) is 3390 nM; in assay [2], > 10 µM; in assay [3] (setting [7]), 77.6 nM.
With `O=C(c1ccnc2ccccc12)N1[C@H]2CC[C@H](c3cc(C(F)F)nc4ncnn34)[C@@H]1CC2` [Compound 317], the “hPDE10A2 or rPDE10A2 Emax” value in assay [1] (human clone by default (no (r) mark)) worked out at 34. For the same molecule, the IC50 in assay [1] (setting [9]) was > 10000 nM; in assay [2], > 10 µM. The Emax amounted to 15% in assay [2] and 99% in assay [3].
In the case of `O=C(c1nc2ccccc2o1)N1[C@H]2CC[C@H](c3cc(C(F)F)nc4ncnn34)[C@@H]1CC2` [Compound 304], the results for the Emax in assay [1] (setting [8]), in assay [2] and in assay [3] were 45%, 48% and 100%, respectively. Further, the figures for the IC50 in assay [1] (setting [9]), in assay [2] and in assay [3] (setting [7]) were > 10000 nM, 9.12 µM and 39.8 nM, respectively.
For `Cc1cc([C@@H]2CN(C(=O)c3nc4ccccc4o3)CC[C@H]2C)n2ncnc2n1` [Compound 21], the Emax was determined as 97% in assay [1] (setting [4]), 89% in assay [2], 99% in assay [3] (human recombinant PDE2A) and 99% in assay [3]. In addition, the IC50 is 132 nM in assay [1] (setting [5]), 1.51 µM in assay [2], 4.57 nM in assay [3] (setting [6]) and 4.57 nM in assay [3] (setting [7]).
Turning to `C[C@@H]1CCN(C(=O)c2ccc(Cl)cn2)C[C@H]1c1cc(C(F)F)nc2ncnn12` [Compound 154], the Emax in assay [1] (setting [4]) worked out at 79%; in assay [2], 50%; in assay [3] (human recombinant PDE2A), 100%; in assay [3], 100%. For the same molecule, the IC50 in assay [1] (setting [5]) is 2750 nM; in assay [2] it was > 10 µM; in assay [3] (setting [6]), 51.3 nM; in assay [3] (setting [7]), 51.3 nM.
For the molecule `COc1ccc(C(C)(C)C)cc1C(=O)N1CC[C@@H](C)[C@H](c2cc(C(F)F)nc3ncnn23)C1` [Compound 165], the Emax stood at 78% in assay [1] (setting [4]), 36% in assay [2], 100% in assay [3] (human recombinant PDE2A) and 100% in assay [3]. The IC50 was 3470 nM in assay [1] (setting [5]), > 10 µM in assay [2], 93.3 nM in assay [3] (setting [6]) and 93.3 nM in assay [3] (setting [7]).
As to `Cc1cc(C(=O)N2[C@H]3CC[C@@H]2[C@H](c2cc(C(F)F)nc4ncnn24)CC3)c(F)cn1` [Compound 62], the Emax in assay [1] (setting [4]) turned out to be 36%; in assay [2] it was 8%; in assay [3], 77%. Besides, the IC50 in assay [1] (setting [5]) was > 10000 nM; in assay [2], > 10 µM; in assay [3] (setting [7]), 3020 nM.
In the case of `Cc1cc(C(=O)N2CC[C@@H](C)[C@H](c3cc(C(F)F)nc4ncnn34)C2)no1` [Compound 157], the Emax turned out to be 75% in assay [1] (setting [4]), 33% in assay [2], 99% in assay [3] (human recombinant PDE2A) and 99% in assay [3]. Further, the IC50 is 2570 nM in assay [1] (setting [5]), > 10 µM in assay [2], 60.3 nM in assay [3] (setting [6]) and 60.3 nM in assay [3] (setting [7]).
Consider `Cc1nc(C2CC2)cc(C(=O)N2CC[C@@H](C)[C@H](c3cc(C(F)F)nc4ncnn34)C2)c1F` [Compound 279], for which the results for the Emax in assay [1] (setting [8]), in assay [2] and in assay [3] were 96%, 86% and 99%, respectively. Besides, the IC50 in assay [1] (setting [9]) is 316 nM; in assay [2], 2.82 µM; in assay [3] (setting [7]), 2.24 nM.
For the molecule `Cc1cc(C(=O)N2CC[C@@H](C)[C@H](c3cc(C(F)F)nc4ncnn34)C2)c(F)c(C(F)(F)F)n1` [Compound 396], the maximal response (Emax) in assay [1] (setting [8]) was 84%; in assay [2] it was 56%; in assay [3], 98%. Besides, the IC50 in assay [1] (setting [9]) was 1480 nM; in assay [2] it was > 10 µM; in assay [3] (setting [7]), 15.1 nM.
